Measurements from patent US11278567B2, “Methods of modifying neuronal function by changing intracellular magnesium levels” (Neurocentria, Inc., priority 2016, dated 2022).
“And” between values parts separate entries of the source, which are not always exact repeats. Equal values may be shown once. “Also recorded” adds a separate entry of the source.

Assays:
Assay type in all cases: cell-based, Sprague-Dawley rats
[1] = test system: hippocampal CA3-CA1 pyramidal neurons; assay: Intracellular Mg2+ measurement with Magnesium Green-AM (MgGrn); conditions: for [Mg2+]i after blockade of axonal transport: 0.5 mM
Method: (§1) High-density primary cultures of hippocampal CA3-CA1 pyramidal neurons of neonatal Sprague-Dawley rats (<24 hr) were used in the current study, as described before (Slutsky et al., Neuron. 2004; 44(5):835-49). The neurons were cultured on 1 #coverslips (8 mm×8 mm) for 14-28 days in vitro (div) before use. [Mg^2+]o in culture medium was adjusted to different concentrations according to experimental designs. In each experiment, sister cultures from the same batch were always used for treatment and control conditions on the same day, and the experimental results were repeated using several different batches.
The mature cultures were incubated in Tyrode's solution with 2 μM Magnesium Green™-AM (MgGrn, an intracellular Mg^2+ indicator, Invitrogen) for 30 min and washed out for 20 min; both at 37° C. Fluorescent images of several AOIs in each coverslip were taken on FV300 at RT. In the current study, the MgGrn fluorescence at basal condition (without eliciting any AP stimulus) (FIG. 1A) was measured to eliminate any effects caused by AP-induced intracellular Ca^2+ fluctuations. Since the intracellular Ca^2+ concentration ([Ca^2+]i) at basal condition was usually <100 nM, the contribution of Ca^2+ to MgGrn fluorescence was very small. Thus, the fluorescent intensity of MgGrn could be considered proportional to [Mg^2+]i. Since the measured MgGrn fluorescence was also dependent on the local volume of branches in network, a physical model was built to describe this phenomenon and the calculating formula that corrected the effect of varying local volumes was derived.
In the experiments, given a randomly selected AOI of dendritic area (the image was obtained as described above), 50-100 branches were randomly selected from each AOI and the mean intensity of fluorescence (i.e. F(z)max) of each branch was measured. Meanwhile, the diameter of each branch (d) was measured from the DIC image, then the F(z)max/d was calculated to represent the [Mg^2+]i in the branch. The mean value of these 50-100 branches was calculated to represent the level of [Mg^2+]i in the AOI. […]

[2] = test system: hippocampal CA3-CA1 pyramidal neurons; assay: Functional terminal density (N5AP): FM dye vesicle turnover under 5AP bursts; conditions: for N5AP after blockade of axonal transport: 0.5 mM
Method: as §1
Vesicle turnover in response to bursting action potentials (see below) is a measure of the functional status of a presynaptic terminal. FM dyes were used to visualize the vesicle turnover of presynaptic terminals. In the current study, 10 μM FM1-43 or 20 μM FM4-64 (Biotium) was loaded under different patterns of field stimulations, such as 5AP bursts (5 action potentials (Aps) at 100 Hz for each burst, 6 bursts (30 APs totally) with 10 s inter burst interval were given) and “maximal stimulation” (600 APs at 10 Hz). Releasable fluorescence in the AOI (ΔF) was obtained from the difference of loading (F1) and unloading (F2) images, i.e. ΔF=F1−F2 (see FIG. 1A). For FIG. 3C, the loading/unloading procedures were performed under 5AP bursts and 600AP stimulation at the same area of network successively. Subsequently, the ΔF5AP and ΔF600AP images were registered to colocalize the vesicle turnover for these two stimulating protocols for individual terminals.
The functional terminal density (N5AP) at a dendritic branch was defined as the number of 5AP bursting stimulation induced FM(+) puncta (#FM5AP) per unit area of dendritic branch (A), N5AP=#FM5AP/A. […] immunofluorescence (IF) staining of MAP2 (as described below), which specifically presents in dendritic skeleton, was used to label dendritic area and A was calculated from MAP2(+) area. To limit the error of A introduced by the immunoreactivity of MAP2(+), the staining and imaging parameters were rigorously controlled in different batches of IF and the grey-scale histograms of MAP2(+) images were equalized before measuring A. Here, to ensure the equalized MAP2(+) marked area could reflect the real morphology of dendrites, the parameters of histogram equalization were set based on the comparison of MAP2(+) and DIC images. For most experiments, the average N5AP of an AOI was calculated from the total number of FM(+) puncta divided by total MAP2(+) area to reduce the sampling error. Then the mean N5AP of all AOIs (1-5 AOIs/coverslip) was used to represent the average N5AP in a coverslip; for each statistical data point, several coverslips were used and the mean±standard error of the mean (SEM) of all coverslips was represented (see figure legends). For FIGS. 3B and D, the FM(+) puncta density induced by 600AP stimulation was also calculated and presented in the same way as described above. Exceptionally, for FIG. 2B, each point represented the N5AP at a single segment of dendritic branch. In general, in an AOI (59 μm×59 μm, with varying dendritic density) 351-1598 presynaptic functional terminals could be detected by FM dyes for different experimental groups under 5AP bursting stimulation.

[3] = test system: hippocampal CA3-CA1 pyramidal neurons; assay: In vitro immunofluorescence quantification of presynaptic proteins in terminals
Method: as §1
The neurons were fixed in 1×PBS (pH 7.4) containing 1% Paraformaldehyde (E.M.S.), 0.01% Glutaraldehyde (Alfa Aesar) and 4% Sucrose (Amresco) for 1 hr RT. […]
For FIG. 3B, the average density of immunoreactive puncta of a given AOI was calculated from the total puncta number divided by the total MAP2(+) area; the values from several AOIs were averaged to represent the average puncta density in a coverslip; for each data bar, the mean±SEM of these coverslips were presented. […] For FIGS. 5C and 5D, the mean fluorescence intensity per pixel in each cell body was measured (the somatic area of each cell body was measured from DIC image) and then the mean±SEM of all the cell bodies were presented. […]

[4] = test system: hippocampal CA3-CA1 pyramidal neurons; assay: Mitochondrial status assessment (JC-1 membrane potential, mitochondrial density)
Method: The neurons were cultured on 1 #coverslips (8 mm×8 mm) for 14-28 days in vitro (div) before use. [Mg^2+]o in culture medium was adjusted to different concentrations according to experimental designs.
For FIG. 7A, mitochondria were marked with 40 nM Mitoview633 (Biotium) for 15 min and then washed out in blank medium for 15 min, both at 37° C. For FIG. 6A, the membrane potential-sensitive fluorescent dye JC-1 (1 μM) (Invitrogen) was used. JC-1 was incubated for 15 min followed by a 15 min washout at 37° C. Fluorescent images were taken on FV300 confocal. Mitochondrial membrane potential (ΔΨ) of each mitochondrion was estimated by the ratio of fluorescence of aggregate versus monomer form of JC-1, i.e. Faggr/Fmono. JC-1 was excited by 488 nm laser and the emission spectra were collected at 510-575 nm and >575 nm at the same time separately. Then the ratio of fluorescence at >575 nm versus at 510-575 nm (Faggr/Fmono) was calculated for each individual mitochondrial punctum to represent the ΔΨ of that mitochondrion. To estimate the valid range of Faggr/Fmono, Faggr/Fmono of individual mitochondria was measured before and after administering 5 μM Carbonyl cyanide 4-(trifluoromethoxy)phenylhydrazone (FCCP) 5 min at the same AOI. […] Faggr/Fmono was calculated for each individual meaningful punctum and the mean value of population was calculated from all the puncta to represent the general ΔΨ in this AOI. 3-5 AOIs were measured for each coverslip and the mean of the AOIs were calculated to represent the average ΔΨ of the coverslip. For each bar or point in FIG. 6, several coverslips were used (described in legends). The density of mitochondria (Nmito) was also quantified by counting the number of JC-1-aggregate(+) fluorescent puncta (FIG. 6) or MitoView633(+) puncta (FIG. 7) per area of branches.

[5] = test system: hippocampal CA3-CA1 pyramidal neurons; assay: Probability of transmitter release (Pr) in individual boutons, FM dye; conditions: [Mg2+]o elevated from 0.8 to 1.2 mM for four hours; single action potential input
Method: FIGS. 25Aa to 25B. Intracellular Mg^2+ is a negative regulator of Pr. (FIG. 25Aa-25Ac) Inverse relationship between Pr and intracellular Mg^2+ concentration ([Mg^2+]i) in individual boutons. For individual terminals, the higher the [Mg^2+]i, the lower the Pr. (FIG. 25Aa) [Mg^2+]i and Pr in individual boutons were determined by Magnesium Green (MgGrn) and FM4-64, respectively. (FIG. 25Ab) Pr was negatively associated with [Mg^2+]i in individual boutons in a synaptic network. (FIG. 25Ac) Pr was linearly correlated with 1/[Mg^2+]i. […] Extracellular Mg^2+ concentration ([Mg^2+]o) was elevated from 0.8 to 1.2 mM for four hours to increase [Mg^2+]i.
FIGS. 26A and 26B. (FIG. 26A) Representative DIC and FM1-43 images comparing presynaptic responses to single (“1AP”: 30AP0.5 Hz) and bursting (“5AP”: 6 groups of 5 APs at 100 Hz, ISI 10 sec) stimulus at low (0.8 mM) and high (1.2 mM) [Mg^2+]o. (FIG. 26B) Quantitative analysis of images from FIG. 26A. ***p<0.001. For methods see Slutsky et al, 2004, and Example 1. 2AP and 3AP refer to 6 groups of 2 APs at 100 Hz or 3 APs at 100 Hz, respectively.

[6] = elevating Mg2+ level for long term (>48 hr)

## CN(C)CCCN1c2ccccc2CCc2ccccc21 [Imipramine]
[1]; 1 μM for 4 hr
  [Mg2+]i (MgGrn fluorescence): elevation
[2]; 1 μM for 4 hr added to Ctrl ([Mg2+]o 0.8 mM), 5AP bursts
  functional terminal density (N5AP): increased
[2]; after 1 μM for 4 hr
  persistence of N5AP enhancement: ~32 h

## COc1cc2c(c(OC)c1OC)-c1ccc(OC)c(=O)cc1[C@@H](NC(C)=O)CC2 [Colchicine]
[1]; at the high [Mg2+]o condition
  [Mg2+]i after blockade of axonal transport: without change
[1]; while increasing [Mg2+]o
  [Mg2+]i after blockade of axonal transport: did not prevent elevation
[3]; 0.5 mM, as a function of blocking time, low and high [Mg2+]o
  concentration of presynaptic proteins in terminals: decrease; also recorded: decreased linearly
[2]; at the high [Mg2+]o condition
  N5AP after blockade of axonal transport: remarkable reduction
[2]; while increasing [Mg2+]o
  N5AP after blockade of axonal transport: prevented the increase

## N#CC(C#N)=NNc1ccc(OC(F)(F)F)cc1 [FCCP, Carbonyl cyanide 4-(trifluoromethoxy)phenylhydrazone, reference compound]
[4]; 5 μM, 5 min, from 1.21±0.02 before
  mean Faggr/Fmono of all mitochondria (JC-1, ΔΨ): 0.26±0.002

## [Mg+2] [Mg^2+]
[5]
  probability of release (Pr): reduced
[3]; high [Mg2+]o (1.2 4 hr) vs Ctrl 0.8
  increase in expression of Ca2+ sensor (SYT1) and coupling proteins in terminals: 30-44%
[2]; [Mg2+]o elevated from 0.8 to 1.2 mM for 4 hr
  terminals functional in response to 5AP bursts (of 600AP-releasable terminals): 90.6±2.9% and ~90%
[4]; elevating Mg2+ for 4 hr
  increase in mitochondrial membrane potential (ΔΨ): ~39%
[4]; elevating Mg2+ level for 4 hr
  increase in general mitochondrial function (Nmito×ΔΨ): ~68% and 67.8±12.4%
  increase in mitochondrial density (Nmito) in distal branches: ~20% and 19.4±2.9%
[4]; [6]
  increase in general mitochondrial function (Nmito×ΔΨ): 56.2±6.5%
  increase in mitochondrial density (Nmito) in distal branches: 19.6±2.1%
